Reference: patent US7589079B2, “Crystalline and amorphous forms of beta-L-2′-deoxythymidine” (Novartis AG, priority 2002, dated 2009)
In brackets after ≈: the same amount, converted by molar mass. Marks after values point to notes of the source that are not given here.

Key:
[1] = Moisture sorption/desorption (VTI SGA-100 Vapor Sorption Analyzer); assay type: physicochemical; details: for Weight lost upon lowering the relative humidity (in words): lowering relative humidity from 95% RH to 5% RH; for Moisture balance: weight gain at 95% RH: sorption up to 95% RH; for Moisture balance: weight loss at 5% RH: equilibration at 5% RH; for Moisture balance: loss from 95-5% RH: desorption from 95% to 5% RH
Description: Moisture sorption/desorption data were collected on a VTI SGA-100 Vapor Sorption Analyzer. Sorption and desorption data were collected over a range of 5% to 95% relative humidity (RH) at 10% RH intervals under a nitrogen purge. Samples were not dried prior to analysis. Equilibrium criteria used for analysis were less than 0.0100% weight change in 5 minutes, with a maximum equilibration time of 3 hours if the weight criterion was not met. Data were not corrected for the initial moisture content of the samples. NaCl and PVP were used as calibration standards.

[2] = Approximate solubilities in various solvents at ambient temperature (crystallization screen); assay type: physicochemical
Description: A weighed sample of L-dT (usually 20-30 mg) was treated with aliquots of the test solvent. Solvents were either reagent or HPLC grade. The aliquots were usually 100 μL or 500 μL. Between additions the mixture was sonicated. When the solids dissolved, as judged by visual inspection, the solution was filtered, then left in an open vial under ambient conditions (fast evaporation). The procedure was repeated, and the resulting solution was left under ambient conditions in a vial with aluminum foil containing pinholes (slow evaporation). Samples were also generated by filtering a warm solution of L-dT into a cold antisolvent (cold precipitation).
Solubilities were estimated from these experiments based on the total solvent used to give a solution. Note that actual solubilities may be greater than those calculated because of the use of too-large solvent aliquots or a slow rate of dissolution.
Approximate solubilities of L-dT in various solvents at ambient temperature were determined during the crystalline screen, and are summarized in Table 1.

[3] = solvent 1,1,1,3,3,3-hexafluoroisopropanol
[4] = solvent N,N-dimethylformamide (DMF)
[5] = solvent ethanol (EtOH), after 2 hours, all solid was dissolved

| SMILES | Weight lost upon lowering the relative humidity (in words) [1] | Solubility [2, 3] [mg/mL] | Solubility ([2]; solvent 2,2,2-trifluoroethanol) [mg/mL] | Solubility ([2]; solvent MeOH:water (1:1)) [mg/mL] | Solubility [2, 4] [mg/mL] | Solubility ([2]; solvent THF:water (1:1)) [mg/mL] | Solubility ([2]; solvent acetone:water (4:1)) [mg/mL] | Solubility [2, 5] | Solubility ([2]; solvent methanol (MeOH)) [mg/mL] | Solubility ([2]; solvent water) [mg/mL] | further results |
| --- | --- | --- | --- | --- | --- | --- | --- | --- | --- | --- | --- |
| Cc1cn([C@@H]2C[C@@H](O)[C@H](CO)O2)c(=O)[nH]c1=O [crystalline L-dT, beta-L-2′-deoxythymidine] | All of this weight is lost | 22 (≈ 90.8 mM) | 8 (≈ 33 mM) | 58 (≈ 239 mM) | 72 (≈ 297 mM) | 127 (≈ 524 mM) | 51 (≈ 211 mM) | >3.6* mg/mL | 11 (≈ 45.4 mM) | 32 (≈ 132 mM) | Moisture balance: weight gain at 95% RH [1]: 1.1%; Solubility ([2]; solvent acetone): <4 mg/mL; Solubility ([2]; solvent acetonitrile (ACN)): <4 mg/mL; Solubility ([2]; solvent dichloromethane): <3 mg/mL; Solubility ([2]; solvent ethyl acetate (EtOAc)): <4 mg/mL; Solubility ([2]; solvent ethyl ether): <3 mg/mL; Solubility ([2]; solvent hexane): <4 mg/mL; Solubility ([2]; solvent isopropanol IPA): <3 mg/mL; Solubility ([2]; solvent tetrahydrofuran (THF)): 4 mg/mL (≈ 16.5 mM); Solubility ([2]; solvent toluene): <4 mg/mL |
| Cc1cn([C@@H]2C[C@@H](O)[C@H](CO)O2)c(=O)[nH]c1=O [amorphous L-dT, beta-L-2′-deoxythymidine] | loses almost all of this weight | – | – | – | – | – | – | – | – | – | Moisture balance: weight loss at 5% RH [1]: ~0.4%; Moisture sorption: weight gain up to about 55% RH ([1]; sorption up to about 55% RH): ~2.3% |
| Cc1cn([C@@H]2C[C@@H](O)[C@H](CO)O2)c(=O)[nH]c1=O [Lot No. 1, beta-L-2′-deoxythymidine] | – | – | – | – | – | – | – | – | – | – | Moisture balance: loss from 95-5% RH ([1]; listed as 1): 1.1% loss from 95-5% RH; Moisture balance: weight loss at 5% RH ([1]; listed as 1): <0.1% weight loss at 5% RH; Moisture balance: weight gain at 95% RH ([1]; listed as 1): 1.1% weight gain at 95% RH |
| Cc1cn([C@@H]2C[C@@H](O)[C@H](CO)O2)c(=O)[nH]c1=O [Lot No. 2, beta-L-2′-deoxythymidine] | – | – | – | – | – | – | – | – | – | – | Moisture balance: loss from 95-5% RH ([1]; listed as 2): 2.7% loss from 95-5% RH; Moisture balance: weight loss at 5% RH ([1]; listed as 2): −0.4% weight loss at 5% RH; Moisture balance: weight gain at 95% RH ([1]; listed as 2): 2.8% weight gain at 95% RH |
| Cc1cn([C@@H]2C[C@@H](O)[C@H](CO)O2)c(=O)[nH]c1=O [L-dT, beta-L-2′-deoxythymidine] | – | 22 (≈ 90.8 mM) | 8 (≈ 33 mM) | 58 (≈ 239 mM) | 72 (≈ 297 mM) | 127 (≈ 524 mM) | 51 (≈ 211 mM) | > 4 mg/mL | 11 (≈ 45.4 mM) | 32 (≈ 132 mM) | Solubility (in words) ([2]; in acetone, acetonitrile, ethyl acetate, diethyl ether, isopropanol, methylene chloride, and toluene): sparingly soluble |
